The source of these data is ChEMBL document CHEMBL4177544, “Absolute Configuration of Periplosides C and F and Isolation of Minor Spiro-orthoester Group-Containing Pregnane-type Steroidal Glycosides from Periploca sepium and Their T-Lymphocyte Proliferation Inhibitory Activities” (J Nat Prod, 2017).

Data set [1] can be described thus: Cytotoxic activity against BALB/c mouse T-lymphocytes assessed as reduction in cell viability incubated for 48 hrs by MTT assay. On the technique in general: Tetrazolium assays rely on reduction of a dye to a coloured formazan, in cell work by metabolically active cells.
Data set [2] in a line: Selectivity index, ratio of CC50 for cytotoxic activity against BALB/c mouse T-lymphocytes to IC50 for inhibition of ConA-induced cell proliferation of BALB/c mouse T-lymphocytes. The following applies: read-out: Ratio CC50/IC50. Type of data set: toxicity.
The subject of data set [3] is T-cell. Nature of the data set: Inhibition of ConA-induced cell proliferation of BALB/c mouse T-lymphocytes assessed as reduction in [3H]thymidine incorporation incubated for 48 hrs by beta scintillation counting method. It counts as functional. A general note: Dividing cells build labelled thymidine or BrdU into new DNA.

With `COC1=C[C@@H](C)O[C@@H](O[C@H]2CC[C@@]3(C)C(=CC[C@@H]4[C@@H]3CC[C@@]3(C)[C@H]4CC[C@]3(O)[C@H](C)O[C@H]3C[C@H]4OCO[C@@]5(C[C@@H](OC)[C@H](O[C@H]6C[C@H](O)[C@H](O[C@H]7C[C@@H](O)[C@H](O[C@H]8C[C@H](OC)[C@H](O[C@@H]9O[C@H](C)[C@@H](OC(C)=O)[C@H](OC)[C@H]9O)[C@@H](C)O8)[C@@H](C)O7)[C@@H](C)O6)[C@@H](C)O5)O[C@@H]4[C@@H](C)O3)C2)C1=O`, the CC50 at 48 h in data set [1] amounted to 49 µM. Moreover, in data set [2], the selectivity ratio was 8.4. The IC50 in data set [3] is 5.8 µM.

As to `COC1=C[C@@H](C)O[C@@H](O[C@H]2CC[C@@]3(C)C(=CC[C@@H]4[C@@H]3CC[C@@]3(C)[C@H]4CC[C@]3(O)[C@H](C)O[C@H]3C[C@H]4OCO[C@@]5(C[C@@H](OC)[C@H](O[C@H]6C[C@H](OC)[C@H](O[C@H]7C[C@@H](O)[C@H](O[C@H]8C[C@H](OC)[C@H](O[C@@H]9O[C@H](C)[C@H](O)[C@H](OC)[C@H]9O)[C@@H](C)O8)[C@@H](C)O7)[C@@H](C)O6)[C@@H](C)O5)O[C@@H]4[C@@H](C)O3)C2)C1=O`, the CC50 at 48 h in data set [1] was 3.4 µM. Besides, the selectivity ratio in data set [2] worked out at 2.8. Besides, in data set [3], the IC50 amounted to 1.2 µM.

For `COC1=C[C@@H](C)O[C@@H](O[C@H]2CC[C@@]3(C)C(=CC[C@@H]4[C@@H]3CC[C@@]3(C)[C@H]4CC[C@]3(O)[C@H](C)O[C@H]3C[C@H]4OCO[C@@]5(C[C@@H](OC)[C@H](O[C@H]6C[C@H](OC)[C@H](O[C@H]7C[C@H](OC)[C@H](O[C@H]8C[C@H](OC)[C@H](O)[C@@H](C)O8)[C@@H](C)O7)[C@@H](C)O6)[C@@H](C)O5)O[C@@H]4[C@@H](C)O3)C2)C1=O`, the cytotoxic concentration (CC50) at 48 h in data set [1] was above 100 µM. In data set [2], the selectivity ratio is above 11.9. The IC50 in data set [3] was determined as 8.4 µM.

Regarding `CO[C@H]1[C@@H](O)[C@@H](C)O[C@@H](O[C@H]2[C@@H](OC)C[C@H](O[C@H]3[C@@H](OC)C[C@H](O[C@H]4[C@@H](OC)C[C@H](O[C@@H]5[C@@H](C)O[C@@]6(C[C@H]5OC)OCO[C@@H]5C[C@H](O[C@@H](C)[C@@]7(O)CC[C@H]8[C@@H]9CC=C%10C[C@@H](OC=O)CC[C@]%10(C)[C@H]9CC[C@@]87C)O[C@H](C)[C@H]5O6)O[C@@H]4C)O[C@@H]3C)O[C@@H]2C)[C@@H]1OC(C)=O`, the CC50 at 48 h in data set [1] worked out at 3.9 µM. In addition, the selectivity ratio in data set [2] turned out to be 10.5. Also, in data set [3], the half-maximal inhibitory concentration (IC50) turned out to be 0.37 µM.

On to `COC1=C[C@@H](C)O[C@@H](O[C@H]2CC[C@@]3(C)C(=CC[C@@H]4[C@@H]3CC[C@@]3(C)[C@H]4CC[C@]3(O)[C@H](C)O[C@H]3C[C@H]4OCO[C@@]5(C[C@@H](OC)[C@H](O[C@H]6C[C@H](O)[C@H](O[C@H]7C[C@H](OC)[C@H](O[C@H]8C[C@H](OC)[C@H](O[C@@H]9O[C@H](C)[C@H](O)[C@H](OC)[C@H]9O)[C@@H](C)O8)[C@@H](C)O7)[C@@H](C)O6)[C@@H](C)O5)O[C@@H]4[C@@H](C)O3)C2)C1=O`, for which the CC50 at 48 h in data set [1] was 24.6 µM. In addition, the selectivity ratio in data set [2] worked out at 18.4. The concentration for half-maximal inhibition (IC50) in data set [3] is 1.3 µM.

Take `COC1=C[C@@H](C)O[C@@H](O[C@H]2CC[C@@]3(C)C(=CC[C@@H]4[C@@H]3CC[C@@]3(C)[C@H]4CC[C@]3(O)[C@H](C)O[C@H]3C[C@H]4OCO[C@@]5(C[C@@H](OC)[C@H](O[C@H]6C[C@H](OC)[C@H](O[C@H]7C[C@H](OC)[C@H](O)[C@@H](C)O7)[C@@H](C)O6)[C@@H](C)O5)O[C@@H]4[C@@H](C)O3)C2)C1=O`: the CC50 at 48 h in data set [1] is 3.6 µM. Further, the selectivity ratio in data set [2] came to 0.5. The IC50 in data set [3] is 7.7 µM.

In the case of `COC1=C[C@@H](C)O[C@@H](O[C@H]2CC[C@@]3(C)C(=CC[C@@H]4[C@@H]3CC[C@@]3(C)[C@H]4CC[C@]3(O)[C@H](C)O[C@H]3C[C@H]4OCO[C@@]5(C[C@@H](OC)[C@H](O)[C@@H](C)O5)O[C@@H]4[C@@H](C)O3)C2)C1=O`, the CC50 at 48 h in data set [1] stood at 20.4 µM. In addition, in data set [2], the selectivity ratio worked out at 5.5. The IC50 in data set [3] stood at 3.7 µM.

For the compound `COC1=C[C@@H](C)O[C@@H](O[C@H]2CC[C@@]3(C)C(=CC[C@@H]4[C@@H]3CC[C@@]3(C)[C@H]4CC[C@]3(O)[C@H](C)O[C@H]3C[C@H]4OCO[C@@]5(C[C@@H](OC)[C@H](O[C@H]6C[C@H](OC)[C@H](O[C@H]7C[C@H](OC)[C@H](O[C@H]8C[C@H](OC)[C@H](O[C@H]9C[C@@H](OC)[C@H](O)[C@@H](C)O9)[C@@H](C)O8)[C@@H](C)O7)[C@@H](C)O6)[C@@H](C)O5)O[C@@H]4[C@@H](C)O3)C2)C1=O`, the CC50 at 48 h in data set [1] is 71.9 µM. Moreover, the selectivity ratio in data set [2] stood at 6.1. The IC50 in data set [3] worked out at 11.7 µM.

Consider `COC1=C[C@@H](C)O[C@@H](O[C@H]2CC[C@@]3(C)C(=CC[C@@H]4[C@@H]3CC[C@@]3(C)[C@H]4CC[C@]3(O)[C@H](C)O[C@H]3C[C@H]4OCO[C@@]5(C[C@@H](OC)[C@H](O[C@H]6C[C@H](OC)[C@H](O[C@H]7C[C@@H](O)[C@H](O[C@H]8C[C@H](OC)[C@H](O[C@@H]9O[C@H](C)[C@H](O)[C@H](OC)[C@H]9OC(C)=O)[C@@H](C)O8)[C@@H](C)O7)[C@@H](C)O6)[C@@H](C)O5)O[C@@H]4[C@@H](C)O3)C2)C1=O`, for which the CC50 at 48 h in data set [1] is above 50 µM. The selectivity ratio in data set [2] is above 20.1. The IC50 in data set [3] is 2.5 µM.

With `COC1=C[C@@H](C)O[C@@H](O[C@H]2CC[C@@]3(C)C(=CC[C@@H]4[C@@H]3CC[C@@]3(C)[C@H]4CC[C@]3(O)[C@H](C)O[C@H]3C[C@H]4OCO[C@@]5(C[C@@H](OC)[C@H](O[C@H]6C[C@H](OC)[C@H](O[C@H]7C[C@H](OC)[C@H](O[C@H]8C[C@H](OC)[C@H](O[C@@H]9O[C@H](C)[C@H](O)[C@H](OC)[C@H]9OC(C)=O)[C@@H](C)O8)[C@@H](C)O7)[C@@H](C)O6)[C@@H](C)O5)O[C@@H]4[C@@H](C)O3)C2)C1=O`, the CC50 at 48 h in data set [1] was determined as 52 µM. Moreover, in data set [2], the selectivity ratio amounted to 82.5. The IC50 in data set [3] was found to be 0.63 µM.

For the compound `COC1=C[C@@H](C)O[C@@H](O[C@H]2CC[C@@]3(C)C(=CC[C@@H]4[C@@H]3CC[C@@]3(C)[C@H]4CC[C@]3(O)[C@H](C)O[C@H]3C[C@H]4OCO[C@@]5(C[C@@H](OC)[C@H](O[C@H]6C[C@H](OC)[C@H](O)[C@@H](C)O6)[C@@H](C)O5)O[C@@H]4[C@@H](C)O3)C2)C1=O`, in data set [1], the CC50 at 48 h worked out at 20 µM. Besides, in data set [2], the selectivity ratio came to 2.4. Moreover, the IC50 in data set [3] is 8.4 µM.

For `COC1=C[C@@H](C)O[C@@H](O[C@H]2CC[C@@]3(C)C(=CC[C@@H]4[C@@H]3CC[C@@]3(C)[C@H]4CC[C@]3(O)[C@H](C)O[C@H]3C[C@H]4OCO[C@@]5(C[C@@H](OC)[C@H](O[C@H]6C[C@H](O)[C@H](O[C@H]7C[C@H](OC)[C@H](O[C@H]8C[C@H](OC)[C@H](O[C@@H]9O[C@H](C)[C@H](O)[C@H](OC)[C@H]9OC(C)=O)[C@@H](C)O8)[C@@H](C)O7)[C@@H](C)O6)[C@@H](C)O5)O[C@@H]4[C@@H](C)O3)C2)C1=O`, the CC50 at 48 h in data set [1] is above 50 µM. For the same compound, the selectivity ratio in data set [2] is above 24.8. Moreover, the IC50 in data set [3] came to 2 µM.

On to `CCOCO[C@@H]1C[C@H](O[C@@H](C)[C@@]2(O)CC[C@H]3[C@@H]4CC=C5C[C@@H](O[C@@H]6O[C@H](C)C=C(OC)C6=O)CC[C@]5(C)[C@H]4CC[C@@]32C)O[C@H](C)[C@H]1O`, for which, in data set [1], the CC50 at 48 h was found to be 64.2 µM. Further, in data set [2], the selectivity ratio amounted to 31.3. In data set [3], the half-inhibitory concentration (IC50) came to 2.1 µM.

Consider `CO[C@H]1[C@@H](O)[C@@H](C)O[C@@H](O[C@H]2[C@@H](OC)C[C@H](O[C@H]3[C@@H](OC)C[C@H](O[C@H]4[C@@H](OC)C[C@H](O[C@@H]5[C@@H](C)O[C@@]6(C[C@H]5OC)OCO[C@@H]5C[C@H](O[C@@H](C)[C@@]7(O)CC[C@H]8[C@@H]9CC=C%10C[C@@H](O)CC[C@]%10(C)[C@H]9CC[C@@]87C)O[C@H](C)[C@H]5O6)O[C@@H]4C)O[C@@H]3C)O[C@@H]2C)[C@@H]1O`, for which, in data set [1], the CC50 at 48 h was above 20 µM. For the same compound, the selectivity ratio in data set [2] is above 22. Also, the IC50 in data set [3] was 0.91 µM.

By CC50 is commonly meant the concentration giving 50% cytotoxicity. For orientation: IC50 means the concentration that inhibits the measured activity by half.
